The METLIN SMRT retention time set (Domingo-Almenara et al. 2019)

Assay: gradient 5% acetonitrile 3 min, to 50% in 2 min, to 85% in 15 min, held 3 min, 100 µL/min
Settings: column: Zorbax Extend-C18 2.1 x 50 mm; eluents: water / acetonitrile, 0.1% formic acid
Summary of the method: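 In both positive and negative ionization mode, a quadrupole time-of-flight mass spectrometer coupled to HPLC analyzed pure standards run in mixtures of ~100 molecules. The Zorbax Extend-C18 column (2.1 × 50 mm, 1.8 μm) was operated at 100 μL/min with water and acetonitrile, each containing 0.1% formic acid. The dead volume was 40 μL and the dwell volume 900 μL. Retention time came from adduct peaks that were computationally picked and individually inspected by hand.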

RP-LC retention time [s] | SMILES
1030 | CCc1nc(-c2csc(S(=O)(=O)N3CCCC(C(=O)NCc4ccc(Cl)cc4)C3)c2)no1 (stereo not given)
636 | CCOC(=O)N1CCN(c2nc(F)c3c(c2F)S(=O)(=O)CCN3Cc2cccnc2)CC1
622 | CC(C)CN1CCN(S(=O)(=O)c2cc(-c3nnc(C4CC4)o3)co2)CC1
909 | CCc1ccccc1N(C)C(=O)C1CCCN(c2ncnc3c2nc2n3CCCCC2)C1 (stereo not given)
1130 | Cc1[nH]nc(-c2c(C)sc(C)c2S(=O)(=O)NCCCc2ccccc2)c1C
733 | CCn1ccc2sc(C)c(C(=O)NC3CCCC3)c2c1=O
1040 | CC1CCCN(C(=O)c2cn(-c3cc(-c4nc(C(C)(C)C)no4)ccn3)cn2)C1 (stereo not given)
669 | Cc1cc(C(=O)NC2CC2)c2cc(Cl)ccc2n1
811 | CCSc1nnc(-c2nn(C)c3c2CN(C(=O)c2cc(C)ccc2C)CC3)n1C
621 | COCc1ncc(C)n1CC1CN(C(=O)C2(c3ccccc3)CC2)C1
781 | CCn1c(=O)c2cc(C(=O)NCc3cn[nH]c3C)nn2c2ccccc21
653 | COc1ccc(C2C(C(=O)N3CCOCC3)=C(C)NC3=C2C(=O)CCC3)cc1Br (stereo not given)
755 | O=C(CCc1csc(NC(=O)c2cccs2)n1)NCCc1c[nH]c2ccccc12
1020 | CCc1nc(-c2csc(S(=O)(=O)N3CCCC(C(=O)Nc4ccc(F)cc4C)C3)c2)no1 (stereo not given)
621 | Cn1cc(-c2cc3n(n2)CCC(=O)N3CCCC(=O)NCCCN2CCCC2)c2ccccc21
1180 | CC(C)Cc1nc(-c2ccccc2)oc1CC(=O)Nc1ccc(F)cc1Cl
762 | O=C(Nc1cccc(Cl)c1F)N1CCC(N2CC(F)(F)C[C@H]2COCC2CC2)CC1
860 | O=C(NCCc1csc(-c2ccccc2)n1)c1cccs1
1150 | COc1ccc(-c2noc(-c3ccc(NCc4ccc(C)o4)nc3)n2)cc1
1140 | O=C(NCc1ccc(F)cc1)c1c(O)c2cccnc2n(-c2cccc(F)c2)c1=O
639 | CCn1ccc(C(=O)N2CCCn3cc(-c4cccc(C#N)c4)nc32)n1
897 | COc1ccc(OCC(=O)Nc2ccc3c(c2)N(C(=O)C(C)C)CCC3)cc1
935 | CCOC(=O)c1[nH]c(C)c(CN(Cc2ccco2)C(=O)c2ccc3c(c2)OCO3)c1C

RP-LC retention time [s] | SMILES
571 | O=c1[nH]c2ccc(NCc3ccccc3)cc2[nH]1
959 | CC1CN(C(=O)CSc2cn(CC(=O)N(C(C)C)C(C)C)c3ccccc23)CC(C)O1 (stereo not given)
686 | CCOC(=O)c1cn(CC(=O)NC2CCCC2)c2nc(C)ccc2c1=O
834 | COC(=O)c1ccc(NC(=O)C(=O)NCC2(c3ccc(F)cc3)CC2)cc1
755 | COc1ccc(C2(C(=O)N3CC(N(Cc4ccncc4)CC4CC4)C3)CCCCC2)cc1
726 | CCOC(=O)Cn1nc2oc(=O)c(CCN3CCN(c4ccccc4OC)CC3)c(C)c2c1C
667 | COc1cccc(C(=O)Nc2c(-c3ccc(F)cc3)nc3ccccn23)c1OC
1040 | Cc1ccc2c(c1)N(S(C)(=O)=O)CCC(C(=O)Nc1ccccc1Br)O2 (stereo not given)
1020 | O=C(Cc1ccccc1Cl)N1CCc2cc(-c3ccno3)ccc21
1000 | COc1cccc(N2CCN(S(=O)(=O)c3ccsc3C(=O)NCC(C)C)CC2)c1
869 | CN(Cc1ccco1)C(=O)c1ccc(NC(=O)C2CC2)cc1N1CCCCCC1
595 | Cc1ccn2cc(CC(=O)Nc3ccc(F)cc3)nc2c1
878 | COC(=O)c1ccc(S(=O)(=O)N2CCN(S(=O)(=O)C3CC3)CC2)cc1
793 | O=C(O)c1cccc2c1CCN2S(=O)(=O)c1ccccc1
843 | COc1ccc(NC(=O)c2nc(C)oc2C)cc1F
729 | CCn1cc(S(=O)(=O)N2CCC3(CC2)CN(Cc2ccc(OC)cc2)C3=O)cn1
1080 | COc1ccc(NC(=O)C2CCCN(c3nc4c(s3)c(C)nn4-c3ccc(OC)cc3)C2)cc1 (stereo not given)
606 | Cc1ccccc1-c1noc(C2CCCN2C(=O)Nc2ccccc2Cl)n1 (stereo not given)
724 | N#Cc1cccc(C(=O)N2CCc3cc(-c4ccno4)ccc32)c1
718 | CCn1nccc1C(=O)NC1CCCCC1
566 | CCS(=O)(=O)N1CCCN(C(=O)NC)CC1
1200 | CCCCc1ccc(NC(=O)Cn2nc3cc(C)nc(-c4ccc(Cl)cc4)n3c2=O)cc1
687 | COc1ccc(S(=O)(=O)NCC2Cn3cccc3C(=O)N2C)cc1 (stereo not given)

RP-LC retention time [s] | SMILES
814 | CC(C)CNC(=O)c1nc(-c2ccnc(N3CCC(C)CC3)c2)no1
570 | CS(=O)(=O)N1CCN(CCNC(=O)NCc2cccc3ccccc23)CC1
689 | CCNC(=O)C1CCCN(c2nc3ncn(CC(=O)Nc4cc(F)ccc4C)c(=O)c3s2)C1 (stereo not given)
840 | COc1ccccc1CNc1nccc(-n2nc(C)cc2C)n1
1050 | Cc1ccc(NC(=O)C2CCN(S(=O)(=O)c3ccc4c(c3)sc(=O)n4C(C)C)CC2)cc1F
1210 | Cc1cccc(-c2noc(-c3nnn4c3COC(c3ccc(F)cc3)C4)n2)c1 (stereo not given)
582 | Cc1cnc(C(=O)N2CCCn3ccnc3C2C2CCCC2)cn1 (stereo not given)
720 | Cc1cc2c(cc1S(=O)(=O)N1CCCC1C(=O)Nc1ccc3c(c1)OCO3)OCC(=O)N2 (stereo not given)
725 | Cc1ccc(NC(=O)C2CCCN(c3cc(=O)n(C)c(=O)n3C)C2)cc1 (stereo not given)
811 | CN(C)c1ccc(N2C=C(C(=O)N3CCCC3)S(=O)(=O)c3ccccc32)cc1
692 | COc1ccc(-c2cn3c(CC(=O)NCCc4cccs4)csc3n2)cc1OC
623 | Cc1ccc(C(=O)NCCc2nc3cccnc3n2C)c(C)c1
604 | COCCn1c(CC2CCN(C(=O)c3ccc(C)s3)C2)nc2cccnc21 (stereo not given)
984 | O=C(NCCc1csc(-c2ccccc2)n1)C1CCN(S(=O)(=O)c2ccc(Cl)cc2)CC1
930 | COc1cccc(CNC(=O)C2(C)CCCN(C(=O)Nc3ccc(C)cc3C)C2)c1 (stereo not given)
749 | O=C(Nc1ccc(N2CCN(Cc3ccc(F)cc3)C2=O)nc1)c1ccco1
682 | COc1ccc(NC(=O)N(C)CC2CCOCC2)cc1F
1210 | Cc1ccc(C(=O)Nc2nc(-c3ccc(Br)cc3)cs2)cc1[N+](=O)[O-]
582 | COc1ccc(-c2ccc(=O)[nH]n2)cc1OC
985 | CCOC(=O)N1CCC(NC(=O)c2cc3sc(Cl)cc3n2CC)CC1
626 | CCc1nccn1Cc1noc(-c2ccc(OC)cc2)n1
768 | COc1ccc(S(=O)(=O)N2CCN(c3cc(C)nc(N4CCCCC4)n3)CC2)cc1Cl
961 | O=C(COc1ccccc1-c1nnc(-c2ccccc2)o1)NCc1ccco1

RP-LC retention time [s] | SMILES
555 | O=C(O)CCC(=O)Nc1cccc(C(=O)O)c1
571 | CC(C)Oc1ccc(CN2CC(N(Cc3ccncc3)S(C)(=O)=O)C2)cc1
990 | O=C1COc2ccccc2N1Cc1nc(-c2cccc(F)c2)no1
717 | COc1ccc(NC(=O)C2CC(=O)N(c3n[nH]c4cccc(F)c34)C2)cc1 (stereo not given)
760 | O=C(COc1ccccc1-c1nnc(-c2ccccc2)o1)N1CCN(C(=O)c2ccco2)CC1
982 | O=C(Cn1cnc2c(sc3nc(-c4ccccc4)ccc32)c1=O)NCc1ccc(F)cc1
845 | COc1ccccc1-c1noc(C2CCCN2C(=O)c2ccc3c(c2)OCO3)n1 (stereo not given)
1060 | Cc1cc(C)nc(N2CCN(c3cccc(Cl)c3)CC2)n1
655 | Cc1ncc2c(n1)CCN(C(=O)c1ccccc1Br)C2
766 | Cc1noc(/C=C\c2ccc(S(=O)(=O)NC3CC3)cc2)c1NC(=O)C1CC1
987 | CCOc1ccc(-c2noc(Cn3c(=O)n(-c4ccc(C)cc4)c(=O)c4sccc43)n2)cc1OC
773 | O=C(c1cccc(Br)c1)N1CCC2(C1)C(=O)Nc1ccccc12 (stereo not given)
662 | CCOC(=O)C1CCN(C(=O)C2CCN(c3nccc(C)n3)CC2)CC1
1030 | CS(=O)(=O)N1CCC(C(=O)Nc2ccc(Oc3ccccc3)cc2)Oc2ccccc21 (stereo not given)
876 | CN(CC1CCOCC1)S(=O)(=O)c1cccc(Cl)c1
590 | O=C(Nc1ccc2c(c1)OCCO2)N1CCCn2nc(-c3ccncc3)cc2C1
941 | O=C(NCc1ccc(Cl)cc1)C1=C2CCCN2c2ccc(F)cc2S1(=O)=O
675 | COc1ccc(N2CCN(c3ncc4c(n3)CCN(Cc3ccc(C)cc3)C4)CC2)cc1
861 | CCc1ccc(C(=O)N2CCC3(C2)C(=O)N(C)c2ccccc23)cc1 (stereo not given)
665 | Cc1ccc(CC(=O)NC(C)C(=O)Nc2nc3ccccc3[nH]2)cc1 (stereo not given)
912 | CCCCc1c(-c2ccc(OC)cc2)[nH]c2nccnc12
